Test results published in patent US20100063273A1, “NOVEL CRYSTAL OF PIPERACILLIN SODIUM” (Toyama Chemical Co., Ltd, priority 2007, published 2010).

Assays:
Format in all cases: physicochemical
[1] = Purity stability test (storage at 60° C.); conditions: for Purity stability: 60° C. storage, result in words
Experimental: (§1) As test substances, the V type crystal (Example 1), the VI type crystal (Example 2) and the amorphous body (Comparative example 1) were used.
Test substance 2.2 g was put in a C2 vial made by Daiichi Glass Co., Ltd., and after the vial was filled with nitrogen gas, the vial was stored at 60° C. After the initiation of the test, the purity of each test substances was measured by high-performance liquid chromatographic method at 1 week, 2 weeks and 4 weeks later (a notice of the 340th Apr. 4, 2001 by Ministry of Health and Welfare medicinal safe directors of bureaus).

[2] = Light exposure stability test; conditions: D65 lamp, 25° C., 1.20 million lx·hr
[3] = Light exposure stability test; conditions: for By-product I / Piperacillin / Total amount of relative substances: Initiation of test
Experimental: As test substances, the VI type crystal (Example 2) and the amorphous body (Comparative example 1) were used.
Test substance 2.2 g was put in a C2 vial made by Daiichi Glass Co., Ltd., and after the vial was filled with nitrogen gas, the vial was radiated ([…] 1×/hr) with D65 lamp (FLR20S-D-EDL-D65/M) at 25° C.
After the initiation of the test and the radiation of […] 1×/hr, the purity of each test substances was measured by high-performance liquid chromatographic method (a notice of the 340th Apr. 4, 2001 by Ministry of Health and Welfare medicinal safe directors of bureaus).

Hygroscopic test = conditions: for Ratio of change of weight: 25° C., three days; for Hygroscopic (moisture absorption) stability compared with the amorphous body: result in words
Experimental: as §1
Test substances were allowed to stand at 25° C. for three days under 7, 11, 22, 33 and 57% relative humidity, the content of moisture was measured according to Japanese pharmacopoeia, general tests, water determination method (Karl Fischer's method) and the changes of weight were calculated.

[4] = Coloration stability test (storage at 60° C.); conditions: for Coloration stability of exterior appearance: 60° C. storage, result in words
Experimental: as §1
Test substance 2.2 g was put in a C2 vial made by Daiichi Glass Co., Ltd., and after the vial was filled with nitrogen gas, the vial was stored at 60° C. After the initiation of the test, the color difference (ΔE), degree of whiteness (W) and yellowness (YI) of each test substances were measured by a color-difference meter at 1 week, 2 weeks and 4 weeks later.

Dissolution test = conditions: for Dissolution time: 2.2 g in injectable water 10 mL, shaken, complete dissolution by unaided eye, mean of three, sodium monohydrate; for Dissolution compared with the amorphous body: result in words
Experimental: as §1
Test substance 2.2 g was put in a C2 vial made by Daiichi Glass Co., Ltd., injectable water 10 mL was added to the vial, the vial was fixed laterally and was shaken by MRK incubator-shaker (4 cm of shaking width, 48 times/minute of shaking rate).
Complete dissolution was judged by an unaided eye, and the length of time to need for the complete dissolution was measured.
The test was carried out at three times respectively, and those mean values were assumed to the dissolution time.

[5] = 60° C., 1 week, nitrogen-filled vial
[6] = 60° C., 2 weeks, nitrogen-filled vial
[7] = 60° C., 4 weeks, nitrogen-filled vial
[8] = 60° C., 1 week, nitrogen-filled vial, sodium monohydrate
[9] = 60° C., 2 weeks, nitrogen-filled vial, sodium monohydrate
[10] = 60° C., 4 weeks, nitrogen-filled vial, sodium monohydrate
[11] = Initiation of test, sodium monohydrate
[12] = 7% relative humidity, sodium monohydrate
[13] = 11% relative humidity, sodium monohydrate
[14] = 22% relative humidity, sodium monohydrate
[15] = 33% relative humidity, sodium monohydrate
[16] = 57% relative humidity, sodium monohydrate
[17] = 60° C., 1 week, sodium monohydrate
[18] = 60° C., 2 weeks, sodium monohydrate
[19] = 60° C., 4 weeks, sodium monohydrate

CCN1CCN(C(=O)N[C@@H](C(=O)N[C@@H]2C(=O)N3[C@@H]2SC(C)(C)[C@@H]3C(=O)[O-])c2ccccc2)C(=O)C1=O.[Na+] [Comparative example 1, piperacillin sodium]
By-product I [1, 5]: 0.80 | Decomposition product I [1, 5]: 0.13 | Piperacillin [1, 5]: 98.27 | By-product I [1, 6]: 0.97 | Decomposition product I [1, 6]: 0.17 | Piperacillin [1, 6]: 98.05 | By-product I [1, 7]: 1.21 | Decomposition product I [1, 7]: 0.30 | Piperacillin [1, 7]: 97.04 | By-product I ([1]; Initiation of test): 0.22 | Decomposition product I ([1]; Initiation of test): 0.01 | Piperacillin ([1]; Initiation of test): 99.51 | By-product I [2]: 0.31 | Piperacillin [2]: 98.86 | Total amount of relative substances [2]: 1.14 | By-product I [3]: 0.23 | Piperacillin [3]: 99.10 | Total amount of relative substances [3]: 0.90 | Ratio of change of weight (Hygroscopic test; 7% relative humidity): 2.20 w/w % | Ratio of change of weight (Hygroscopic test; 11% relative humidity): 3.12 w/w % | Ratio of change of weight (Hygroscopic test; 22% relative humidity): 4.99 w/w % | Ratio of change of weight (Hygroscopic test; 33% relative humidity): 6.78 w/w % | Ratio of change of weight (Hygroscopic test; 57% relative humidity): 11.03 w/w % | Color difference (ΔE) ([4]; 60° C., 1 week): 2.76 | Degree of whiteness (W) ([4]; 60° C., 1 week): 94.66 | Degree of yellowness (YI) ([4]; 60° C., 1 week): 6.51 | Color difference (ΔE) ([4]; 60° C., 2 weeks): 4.27 | Degree of whiteness (W) ([4]; 60° C., 2 weeks): 93.29 | Degree of yellowness (YI) ([4]; 60° C., 2 weeks): 8.97 | Color difference (ΔE) ([4]; 60° C., 4 weeks): 5.73 | Degree of whiteness (W) ([4]; 60° C., 4 weeks): 91.87 | Degree of yellowness (YI) ([4]; 60° C., 4 weeks): 11.25 | Degree of whiteness (W) ([4]; Initiation of test): 96.86 | Degree of yellowness (YI) ([4]; Initiation of test): 2.17

CCN1CCN(C(=O)N[C@@H](C(=O)N[C@@H]2C(=O)N3[C@@H]2SC(C)(C)[C@@H]3C(=O)O)c2ccccc2)C(=O)C1=O [Example 1, piperacillin sodium monohydrate]
Purity stability [1]: stable | By-product I [1, 8]: 0.21 | Decomposition product I [1, 8]: 0.03 | Piperacillin [1, 8]: 99.66 | By-product I [1, 9]: 0.33 | Decomposition product I [1, 9]: 0.08 | Piperacillin [1, 9]: 99.37 | By-product I [1, 10]: 0.59 | Decomposition product I [1, 10]: 0.26 | Piperacillin [1, 10]: 98.62 | Decomposition product I ([1]; Initiation of test): Not detected | By-product I [1, 11]: 0.04 | Piperacillin [1, 11]: 99.92 | Ratio of change of weight (Hygroscopic test; [12]): 0 w/w % | Ratio of change of weight (Hygroscopic test; [13]): 0.93 w/w % | Ratio of change of weight (Hygroscopic test; [14]): 3.18 w/w % | Ratio of change of weight (Hygroscopic test; [15]): 4.77 w/w % | Ratio of change of weight (Hygroscopic test; [16]): 8.43 w/w % | Hygroscopic (moisture absorption) stability compared with the amorphous body (Hygroscopic test; listed as V type crystal, sodium monohydrate): superior in the moisture absorption stability to the amorphous body | Dissolution time (Dissolution test): 43 s | Dissolution compared with the amorphous body (Dissolution test): dissolved in a short period of time than the amorphous body | Coloration stability of exterior appearance [4]: stable | Color difference (ΔE) [4, 17]: 0.60 | Degree of whiteness (W) [4, 17]: 96.64 | Degree of yellowness (YI) [4, 17]: 1.77 | Color difference (ΔE) [4, 18]: 0.69 | Degree of whiteness (W) [4, 18]: 96.55 | Degree of yellowness (YI) [4, 18]: 1.96 | Color difference (ΔE) [4, 19]: 1.33 | Degree of whiteness (W) [4, 19]: 96.20 | Degree of yellowness (YI) [4, 19]: 3.03 | Degree of whiteness (W) [4, 11]: 96.45 | Degree of yellowness (YI) [4, 11]: 0.94

CCN1CCN(C(=O)N[C@@H](C(=O)N[C@@H]2C(=O)N3[C@@H]2SC(C)(C)[C@@H]3C(=O)O)c2ccccc2)C(=O)C1=O [Example 2, piperacillin sodium monohydrate]
Purity stability [1]: stable | By-product I [1, 8]: 0.07 | Decomposition product I [1, 8]: 0.01 | Piperacillin [1, 8]: 99.82 | By-product I [1, 9]: 0.11 | Decomposition product I [1, 9]: 0.02 | Piperacillin [1, 9]: 99.75 | By-product I [1, 10]: 0.11 | Decomposition product I [1, 10]: 0.04 | Piperacillin [1, 10]: 99.73 | Decomposition product I ([1]; Initiation of test): Not detected | By-product I [1, 11]: 0.02 | Piperacillin [1, 11]: 99.94 | By-product I [2]: 0.14 | Piperacillin [2]: 99.73 | Total amount of relative substances [2]: 0.27 | By-product I [3]: 0.15 | Piperacillin [3]: 99.81 | Total amount of relative substances [3]: 0.19 | Light exposure stability ([3]; result in words): stable | Ratio of change of weight (Hygroscopic test; [12]): 1.16 w/w % | Ratio of change of weight (Hygroscopic test; [13]): 1.54 w/w % | Ratio of change of weight (Hygroscopic test; [14]): 3.14 w/w % | Ratio of change of weight (Hygroscopic test; [15]): 3.98 w/w % | Ratio of change of weight (Hygroscopic test; [16]): 5.28 w/w % | Hygroscopic (moisture absorption) stability compared with the amorphous body (Hygroscopic test; listed as VI type crystal, sodium monohydrate): superior in the moisture absorption stability to the amorphous body | Dissolution time (Dissolution test): 50 s | Dissolution compared with the amorphous body (Dissolution test): dissolved in a short period of time than the amorphous body | Coloration stability of exterior appearance [4]: stable | Color difference (ΔE) [4, 17]: 0.39 | Degree of whiteness (W) [4, 17]: 95.64 | Degree of yellowness (YI) [4, 17]: 1.35 | Color difference (ΔE) [4, 18]: 0.54 | Degree of whiteness (W) [4, 18]: 95.60 | Degree of yellowness (YI) [4, 18]: 1.64 | Color difference (ΔE) [4, 19]: 0.79 | Degree of whiteness (W) [4, 19]: 95.57 | Degree of yellowness (YI) [4, 19]: 2.02 | Degree of whiteness (W) [4, 11]: 95.94 | Degree of yellowness (YI) [4, 11]: 0.85

CCN1CCN(C(=O)N[C@@H](C(=O)N[C@@H]2C(=O)N3[C@@H]2SC(C)(C)[C@@H]3C(=O)O)c2ccccc2)C(=O)C1=O [III type crystal, piperacillin sodium monohydrate]
Hygroscopic (moisture absorption) stability compared with the amorphous body (Hygroscopic test; sodium monohydrate): superior in hygroscopic stability to the amorphous body | Dissolution compared with the amorphous body (Dissolution test): dissolved in a short period of time than the amorphous body
